Source: patent US10501780B2, “Compositions for in situ nucleic acid analysis” (APPLIED BIOSYSTEMS, LLC, priority 2007, dated 2019)
*: point of attachment. MeOSuc = COC(=O)CCC(=O)*; CH2Cl = ClC*

Columns and labels:
[1] = Compatibility of protease inhibitors with 1-step RT-PCR; details: one-step reaction
[2] = Compatibility of protease inhibitors with two-step RT-PCR; type: biochemical
Description: The samples were reverse transcribed using a Reverse Transcriptase Kit (Applied Biosystems Catalog No. 4368813) and the resulting cDNA was subjected to real time PCR with the TAQMAN® Universal PCR Master Mix (Applied Biosystems Catalog No. 4304437).

HeLa cells = test: Lysis efficacy of surfactants by propidium iodide staining; type: cell-based, H. sapiens; details: PI staining, 10^5 HeLa cells; for effectiveness at lysing cells: concentrations up to 3%
Protocol: Lysis efficacies of seven surfactants were tested by PI staining (DNA fluorochrome propidium iodide stain for viability, 1 mg/ml) of 10^5 HeLa cells treated with 0.01% to 5% surfactant. The buffer was 10 mM Tris pH 7.5, 2.5 mM MgCl2, 0.5 mM CaCl2.

proteinase K (PK) = proteinase K (PK) (Parengyodontium album, UniProt P06873); type: biochemical; details: PK 600 ug/ml, increasing inhibitor, 3 min; RNaseALERT fluorescence at 520 nm
Chain of proteinase K (PK) (P06873 106-384): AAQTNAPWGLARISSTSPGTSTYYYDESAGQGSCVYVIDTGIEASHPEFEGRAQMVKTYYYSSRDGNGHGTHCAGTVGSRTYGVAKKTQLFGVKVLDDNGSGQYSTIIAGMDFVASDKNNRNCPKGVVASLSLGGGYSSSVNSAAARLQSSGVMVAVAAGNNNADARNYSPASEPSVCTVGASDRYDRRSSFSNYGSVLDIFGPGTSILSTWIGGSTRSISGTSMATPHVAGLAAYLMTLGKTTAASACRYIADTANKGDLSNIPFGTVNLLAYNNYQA
Protocol: PK (600 ug/ml) was mixed with increasing amounts of test inhibitor and allowed to react for 3 min at room temperature. RNase A was added and the mixture was incubated for 10 min. The RNase A was mixed with RNaseALERT™ substrate (AMBION®, Catalog No. AM1964) and incubated for 10 min. The fluorescence of the RNaseALERT™ substrate was measured at 520 nm.

[3] = biological target: T1, AMPLITAQ GOLD® DNA polymerase (Thermus aquaticus, UniProt P19821); test: Effect of surfactants on qPCR (TAQMAN Universal PCR Master Mix, PPIA assay); type: biochemical; details: even at 1% (0.1% final in PCR)
T1 construct: purchased Applied Biosystems 4304437
T1 sequence (P19821 whole entry): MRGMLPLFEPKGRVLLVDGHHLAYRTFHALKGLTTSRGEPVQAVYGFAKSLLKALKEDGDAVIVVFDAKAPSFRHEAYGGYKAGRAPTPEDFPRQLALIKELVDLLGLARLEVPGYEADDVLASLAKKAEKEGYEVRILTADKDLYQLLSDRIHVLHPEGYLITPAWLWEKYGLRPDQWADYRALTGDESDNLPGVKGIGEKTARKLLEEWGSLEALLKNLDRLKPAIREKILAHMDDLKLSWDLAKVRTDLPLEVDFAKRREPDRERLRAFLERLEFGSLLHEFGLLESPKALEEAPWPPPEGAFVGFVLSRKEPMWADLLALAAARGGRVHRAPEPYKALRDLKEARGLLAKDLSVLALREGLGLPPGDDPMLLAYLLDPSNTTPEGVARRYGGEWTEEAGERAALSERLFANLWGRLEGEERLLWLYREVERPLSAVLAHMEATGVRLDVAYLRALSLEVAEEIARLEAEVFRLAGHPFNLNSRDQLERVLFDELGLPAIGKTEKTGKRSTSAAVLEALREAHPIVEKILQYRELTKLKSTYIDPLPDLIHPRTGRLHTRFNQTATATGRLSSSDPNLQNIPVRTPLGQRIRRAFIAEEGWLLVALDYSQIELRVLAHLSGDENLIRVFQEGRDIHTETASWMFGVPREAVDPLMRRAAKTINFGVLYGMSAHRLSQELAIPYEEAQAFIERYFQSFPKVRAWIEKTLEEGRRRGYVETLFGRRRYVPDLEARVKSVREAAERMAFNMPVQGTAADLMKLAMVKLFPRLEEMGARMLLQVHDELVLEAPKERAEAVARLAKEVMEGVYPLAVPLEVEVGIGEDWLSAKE
Protocol: The effects of surfactants on PCR reactions were then studied. qPCR (20 uL) reactions with 4 ng Human Universal reference liver cDNA (Catalog No. 780622; […]®, La Jolla, Calif.) were performed by adding 2 uL of surfactant resuspended in 10 mM Tris pH 7.5 at concentrations of 0.0%, 0.01%, 0.03%, 0.1%, 0.3%, and 1%. qPCR reactions were carried out using the TAQMAN® Universal PCR Master Mix (Applied Biosystems Catalog No. 4304437), and qRT-PCR reactions were carried out using the TAQMAN® One-Step RT-PCR Master Mix (Applied Biosystems Catalog No. 4309169). TAQMAN® gene expression assays were used to determine expressions levels of genes PPIA (peptidylprolyl isomerase A (cyclophilin A)) and B2M (β-2-microglobulin).
ROX™ background fluorescence was not affected.

proteinase K = proteinase K (Parengyodontium album, UniProt P06873); test: AAPV concentration for proteinase K inhibition in lysis solution (RNase A, Bioanalyzer protein chip); type: biochemical; details: PK 100 ug/ml
Chain of proteinase K (P06873 106-384): as the sequence (P06873 106-384) above
Protocol: For one-step RT-PCR, AAPV (SEQ ID NO:1) is effective. To determine the concentration of AAPV (SEQ ID NO:1) for inhibition of proteinase K in the lysis solution, 50 uL lysis solution was mixed with 5 uL of stop solution with varying amounts of AAPV (SEQ ID NO:1) (11 mM Tris, 44 mM EGTA, […] AAPV (SEQ ID NO:1)) and incubated for 10 min. RNase A (15 ug) was added to each sample and the samples were held for 10 min at room temperature. The reaction mixture was heated for 30 min at 95° C. and analyzed using a Protein 50 Bioanalyzer chip (2100 Bioanalyzer, Agilent, Santa Clara, Calif.). The Bioanalyzer protein gel data are provided by FIG. 7 in which the lower marker is at about 3.5 kDa; the next higher prominent bands are system peaks at about 4.0-4.5 kDa; intact RNase A is at about 20 kDa; and proteinase K is at about 35 kDa. Lanes are labeled as follows: (L) Ladder, (1) RNase Only, (2) PK Only, (3)-(8) AAPV (SEQ ID NO:1) at 1 mM (3), 0.75 mM (4), 0.5 mM (5), 0.25 mM (6), 0.125 mM (7), and 0 mM (8).

DNase I [4] = details: 1 mM EDTA in Buffer A; 0.2 U DNase I
Protocol: The 590 nm fluorescence intensity with 544 nm excitation was measured with time.

DNase I [5] = system: DNase I
Protocol: The ability of EGTA to inhibit DNase I activity and the limiting amount of EGTA that could be used in RT-PCR was determined. EGTA (88 mM; final conc. of 8 mM) was added to the stop solution for DNase I inactivation. The pH of the stop solution was 8.0 for AAPV (SEQ ID NO:1) inactivation of proteinase K. Tris-base with HCl as needed for pH adjustment (11 mM; final conc of 1 mM) was used for buffering the solution.

[6] = concentrations up to 2 mM in the stopped mixture (up to 400 uM in an RT reaction)

O=S(=O)(F)Cc1ccccc1 [PMSF, phenylmethylsulfonylfluoride]
compatibility with 1-step RT-PCR [1]: showed RT-PCR inhibition | RT-PCR inhibition (two-step) [2, 6]: Minimal RT-PCR inhibition

TWEEN™ 40
effectiveness at lysing cells (HeLa cells): not effective

N=C(N)c1ccccc1 [benzamidine]
inhibition of PK at room temperature (proteinase K (PK)): did not show inhibition

TWEEN™ 80
effectiveness at lysing cells (HeLa cells): not effective

aprotinin
compatibility with 1-step RT-PCR [1]: showed RT-PCR inhibition | inhibition of PK at room temperature (proteinase K (PK)): capable of inhibiting PK | RT-PCR inhibition (two-step) ([2]; all concentrations tested): inhibitory

TWEEN™ 20
effectiveness at lysing cells (HeLa cells): not effective

octylphenol ethoxylate having an average of 7.5 ethoxylate groups [TRITON X-114™]
effect on qPCR (Ct) [3]: no effect

CC(=O)N[C@@H](CC(C)C)C(=O)N[C@@H](CC(C)C)C(=O)N[C@H](C=O)CCCNC(=N)N [leupeptin, Ac-Leu-Leu-Arg-CHO]
inhibition of PK at room temperature (proteinase K (PK)): capable of inhibiting PK

NCCc1ccc(S(=O)(=O)F)cc1 [AEBSF, 4-(2-aminoethyl) benzenesulfonyl fluoride]
inhibition of PK at room temperature (proteinase K (PK)): did not show inhibition

methoxysuccinyl-Ala-Ala-Pro-Val-chloromethyl ketone (MeOSuc-AAPV-CH2Cl)
compatibility with 1-step RT-PCR [1]: compatible | inhibition of PK at room temperature (proteinase K (PK)): capable of inhibiting PK | lowest concentration inhibiting PK (proteinase K): ≥ 0.25 mM | lowest concentration inhibiting PK (proteinase K; listed as Methoxysuccinyl-AAPV-chloromethyl ketone): ≥ 0.75 mM | RT-PCR inhibition (two-step) [2, 6]: Minimal RT-PCR inhibition

methoxysuccinyl-Ala-Ala-Pro-Ala-chloromethyl ketone (MeOSuc-AAPA-CH2Cl)
inhibition of PK at room temperature (proteinase K (PK)): did not show inhibition

N-tosyl-L-lysine-chloromethyl ketone [TLCK]
inhibition of PK at room temperature (proteinase K (PK)): did not show inhibition

O=C(O)CN(CCN(CC(=O)O)CC(=O)O)CC(=O)O [EDTA, ethylenediamine tetraacetic acid]
effect on DNase I activity (DNaseALERT substrate fluorescence) (DNase I [4]): inhibitory effect

O=C(O)CN(CCOCCOCCN(CC(=O)O)CC(=O)O)CC(=O)O [EGTA, ethylene glycol tetraacetic acid]
concentration inhibiting DNase I (DNase I [5]): ≥ 4 mM

octylphenol ethoxylate having an average of 9.5 ethoxylate groups [TRITON X-100™]
concentrations effective for lysis (HeLa cells; 0.01% to 5% surfactant tested, 1% TRITON X-100 as full lysis control): ≥ 0.05%

B1: N-acetyl-Eglin C: Catalog No. E7888, Sigma-Aldrich; inhibitor of chymotrypsin, subtilisin, leukocyte elastase and cathepsin G (protein)
chain: Ac-TEFGSELKSFPEVVGKTVDQAREYFTLHYPQYDVYFLPEGSPVTLDLRYNRVRVFYNPGTNVVNHVPHVG
inhibition of PK at room temperature (proteinase K (PK)): did not show inhibition
